The values below are quoted from earlier work in patent US8636711B2 (priority 2010, dated 2014).

For the compound `NS(=O)(=O)c1cc(C(=O)O)c(NCc2ccco2)cc1Cl` [furosemide], the tolerability entry (intravenous or subcutaneous routes) is “generally well-tolerated”. Besides, the pH value (parenteral) was 11-12.
